Measurements as given in patent publication US20240293416A1, “TREATMENT OF LIVER DISORDERS WITH A THR-ß AGONIST” (Terns Pharmaceuticals, Inc., priority 2021, published 2024).
Entries after “also recorded” stand apart in the source; their conditions may differ.

Tests used:
[1] = Food effect on PK performance in beagle dogs; assay type: in vivo; settings: 10 mg capsule, 5% SLS; fasted vs high fat fed dogs, n=3 per group
Method: To determine the food effect on PK performance, beagle dogs were divided into two groups (n=3 per group). For the fasted group, dogs were fasted overnight through 4-hours post dosing. For the fed group, dogs were fed high fat food 30 minutes prior to administration.

[2] = Capsule stability studies under stressed conditions; assay type: physicochemical
Method: A direct encapsulation (DE) formulation study of Compound 1 was carried out. This work included DE process development for the preparation of 1 mg, 3 mg, 10 mg, 50 mg and placebo capsules by a semi-automatic or automatic capsule filling machine. Ingredients, ratios, filling weight, flowability and uniformity of the formulation were all evaluated. The developed processes are suitable for the manufacture of Compound 1 drug products for future clinical studies.
Silica gel desiccant was subsequently proposed for the packaging and proven to be effective to mitigate the formation of the impurity.
The effectiveness of the silica gel desiccant in minimizing the degradation was evaluated through comparative stability studies with or without desiccant included in the primary packaging. […] Therefore, packaging with 1 g desiccant was determined to improve product quality and increase product shelf life.

[3] = Single ascending dose trial: adverse event and safety monitoring; assay type: in vivo, human
Method: (§1) A single-ascending dose clinical trial of Compound 1 (potassium salt) was performed.

[4] = Multiple ascending dose trial: adverse event and safety monitoring; assay type: in vivo, human; settings: for AEs by relationship to drug: Not related / AEs by relationship to drug: Possibly related / AEs by relationship to drug: Related / AEs by relationship to drug: Unlikely related / Any AE, all CTCAE grades / Grade 1 / Grade 2 or higher / Serious AEs: N = 6
Method: (§2) A multiple-ascending dose clinical trial of Compound 1 was performed.

[5] = Single ascending dose trial: plasma and urine pharmacokinetics; assay type: in vivo, human; settings: for fe (fraction of dose excreted in urine as unmodified Compound 1): fasted, n = 6, mean (% CV)
Method: as §1
(§3) PK parameters were estimated via noncompartmental methods using Phoenix WinNonlink (Certara, LP, Princeton, NJ). Concentrations of serum pharmacodynamic (PD) biomarkers apolipoprotein B (Apo B) and sex hormone binding globulin (SHBG) were measured using an immunoassay and serum lipids were determined using spectrophotometry.

[6] = system: SHBG, LDL-c and other lipid parameters; experiment: Multiple ascending doses in healthy subjects with elevated LDL-c: PD markers; assay type: in vivo, human; settings: 1, 3, 6 or 10 mg once daily for 14 days
Source text: Secondary Objectives: Evaluate the PK and PD of Compound 1 in healthy subjects with elevated LDL-c following multiple ascending doses of Compound 1.

[7] = Multiple ascending dose trial: pharmacokinetics; assay type: in vivo, human
Method: as §2
(See Table 5, FIG. 7.) PK parameters were estimated via noncompartmental methods using Phoenix® WinNonlin® (Certara, LP, Princeton, NJ). Concentrations of serum pharmacodynamic (PD) biomarkers apolipoprotein B (Apo B) and sex hormone binding globulin (SHBG) were measured using an immunoassay and serum lipids were determined using spectrophotometry.

[8] = system: SHBG, Apo B and serum lipids; experiment: Single ascending dose trial: serum PD biomarkers; assay type: in vivo, human; settings: for Apo B Change / SHBG Change: n = 6
Method: as §1, §3
PD sampling was performed pre-dose, and 48 hours and 72 hours post-dose. Percent change from baseline for PD markers were calculated using an ANCOVA model with percent change from baseline as dependent variable, treatment group as fixed effect, and baseline as covariate. Analyses used observed data only without imputation for missing data.

[9] = DIO-GAN NASH mice: trough plasma compound levels by LC-MS/MS; assay type: in vivo, C57BL/6JRj mice; settings: plasma 21-24 hours post final dose
Method: Terminal plasma samples were harvested by cardiac puncture approximately 21-24 hours after the last administration of compound(s). Terminal plasma samples were analyzed by high resolution LC-MS/MS using a Triple Quad 6500+ instrument. 20 μL of plasma sample was mixed with 200 μL of internal standard solution (100 ng/ml Labetalol+100 ng/ml Tolbutamide in acetonitrile), vortexed, and centrifuged at 4,000 rpm for 15 min at 4° C. […] The internal standard (retention time: 0.76 min), was used for quantification of the glucuronide metabolite of Compound 2 (retention time: 0.77 min). Calibration curves (1-3000 ng/mL) were generated in a matrix of mouse plasma (pooled vehicle control) for each analyte.
Terminal plasma samples collected by cardiac puncture 21-24 hours post final treatment dose (i.e., trough) were analyzed by LC-MS/MS. Values represent mean and standard deviation (SD). ND, not determined.

P-gp = P-gp (Homo sapiens, UniProt P08183); experiment: In vitro transporter inhibition, P-gp; assay type: in vitro ADME
[10] = 14-day daily dosing up to 10 mg

Chain of P-gp (P08183 whole entry): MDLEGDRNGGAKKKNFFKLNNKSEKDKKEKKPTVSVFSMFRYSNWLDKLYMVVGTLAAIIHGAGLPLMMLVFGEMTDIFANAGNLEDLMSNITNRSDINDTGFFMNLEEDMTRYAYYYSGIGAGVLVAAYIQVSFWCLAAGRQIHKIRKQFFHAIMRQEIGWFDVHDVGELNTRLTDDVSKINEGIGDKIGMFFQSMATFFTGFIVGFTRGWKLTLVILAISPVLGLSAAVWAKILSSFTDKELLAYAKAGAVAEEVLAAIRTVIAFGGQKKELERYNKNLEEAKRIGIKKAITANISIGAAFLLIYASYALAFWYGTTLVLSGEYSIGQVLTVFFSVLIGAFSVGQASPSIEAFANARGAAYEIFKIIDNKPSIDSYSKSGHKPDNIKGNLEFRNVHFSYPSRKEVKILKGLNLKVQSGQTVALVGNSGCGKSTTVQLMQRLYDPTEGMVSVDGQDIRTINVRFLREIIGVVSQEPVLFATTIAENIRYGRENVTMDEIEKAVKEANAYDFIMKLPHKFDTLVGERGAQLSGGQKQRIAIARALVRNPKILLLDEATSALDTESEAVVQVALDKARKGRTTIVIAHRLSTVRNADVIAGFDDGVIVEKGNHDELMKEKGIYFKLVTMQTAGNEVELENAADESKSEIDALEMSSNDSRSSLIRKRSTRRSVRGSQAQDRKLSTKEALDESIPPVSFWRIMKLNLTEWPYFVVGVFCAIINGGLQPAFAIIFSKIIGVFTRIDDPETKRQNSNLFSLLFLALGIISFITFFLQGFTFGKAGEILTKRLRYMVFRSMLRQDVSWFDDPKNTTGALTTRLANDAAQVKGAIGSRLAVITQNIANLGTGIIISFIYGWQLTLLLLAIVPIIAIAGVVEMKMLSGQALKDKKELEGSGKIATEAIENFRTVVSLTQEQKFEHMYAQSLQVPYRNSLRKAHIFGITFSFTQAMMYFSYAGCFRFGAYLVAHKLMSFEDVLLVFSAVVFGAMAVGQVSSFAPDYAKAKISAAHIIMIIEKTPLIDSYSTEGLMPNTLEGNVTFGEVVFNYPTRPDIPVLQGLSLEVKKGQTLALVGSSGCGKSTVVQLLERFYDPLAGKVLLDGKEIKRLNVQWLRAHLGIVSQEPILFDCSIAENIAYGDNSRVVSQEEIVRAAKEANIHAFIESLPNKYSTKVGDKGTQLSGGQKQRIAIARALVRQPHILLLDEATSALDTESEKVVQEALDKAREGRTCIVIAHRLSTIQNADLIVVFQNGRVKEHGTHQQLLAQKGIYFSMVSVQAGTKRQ

For `N#Cc1nn(-c2cc(Cl)c(Oc3n[nH]c(=O)c4ccccc34)c(Cl)c2)c(=O)[nH]c1=O` [Compound 1, 2-(3,5-dichloro-4-((4-oxo-3,4-dihydrophthalazin-1-yl)oxy)phenyl)-3,5-dioxo-2,3,4,5-tetrahydro-1,2,4-triazine-6-nitrile], the “food effect on Tmax” value [1] was “delayed”, the “food effect on plasma exposure” value [1] was “did not have an impact on the plasma exposure” and the capsule short stability ([2]; 3 mg strength capsule, 60° C./75% RH, two weeks) was “a degradation impurity formed”. For the same molecule, the “effect of desiccant packaging on degradation impurities” value ([2]; 1, 3, 10 and 50 mg capsules, 40° C./75% RH) was “significantly retarded the formation of degradation impurities”, the Heart rates ([3]; 24 hours after single dose) was “remained stable and within the normal range” and the “plasma AUC0-∞ without any significant side effects” value ([3]; single ascending dose studies) was ≤ 50,000 ng*hg/mL. For the same molecule, the “overall safety and tolerability” value ([3]; single ascending doses up to 60 mg) was “overall safe and well-tolerated”, the “TSH, free T3, and free T4 levels” value ([3]; single doses 3-60 mg) was “remained within the normal range” and the “bilirubin levels above the normal range” value ([3]; single doses 3-60 mg) was “no subjects”. The “cardiac biomarkers (troponin I, CK-MB) or other clinical safety tests” value ([3]; single doses 3-60 mg) was “no notable changes”, the “cardiac related AEs (e.g., tachycardia, arrythmias)” value ([3]; single doses 3-60 mg) was “No cardiac related AEs” and the “increases in ALT more than 2-times ULN” value ([3]; single doses 3-60 mg) was “No subjects”. For the same molecule, the “severity of adverse events” value ([3]; single doses 3-60 mg) was “mild or moderate in severity”, the “vital signs or ECG parameters” value ([3]; single doses 3-60 mg) was “no remarkable changes” and the “AEs by relationship to drug: Not related” value ([4]; 3 mg once daily for 14 days) was 1 (16.7%) n (%). The “AEs by relationship to drug: Possibly related” value (“AEs … Possibly related” below) ([4]; 3 mg once daily for 14 days) was 0 n (%), the “AEs by relationship to drug: Related” value ([4]; 3 mg once daily for 14 days) was 0 n (%) and the “AEs by relationship to drug: Unlikely related” value (“AEs … Unlikely related” below) ([4]; 3 mg once daily for 14 days) was 0 n (%). The “Any AE, all CTCAE grades” value ([4]; 3 mg once daily for 14 days) was 1 (16.7%) n (%), the “Grade 1” value ([4]; 3 mg once daily for 14 days) was 1 (16.7%) n (%) and the “Grade 2 or higher” value ([4]; 3 mg once daily for 14 days) was 0 n (%). For the same molecule, the “Serious AEs” value ([4]; 3 mg once daily for 14 days) was 0 n (%), the “AEs by relationship to drug: Not related” value ([4]; 6 mg once daily for 14 days) was 0 n (%) and the “AEs … Possibly related” value ([4]; 6 mg once daily for 14 days) was 1 (16.7%) n (%). For the same molecule, the “AEs by relationship to drug: Related” value ([4]; 6 mg once daily for 14 days) was 0 n (%), the “AEs … Unlikely related” value ([4]; 6 mg once daily for 14 days) was 0 n (%) and the “Any AE, all CTCAE grades” value ([4]; 6 mg once daily for 14 days) was 1 (16.7%) n (%). The “Grade 1” value ([4]; 6 mg once daily for 14 days) was 1 (16.7%) n (%), the “Grade 2 or higher” value ([4]; 6 mg once daily for 14 days) was 0 n (%) and the “Serious AEs” value ([4]; 6 mg once daily for 14 days) was 0 n (%). The “AEs by relationship to drug: Not related” value ([4]; 10 mg once daily for 14 days) was 2 (33.3%) n (%), the “AEs … Possibly related” value ([4]; 10 mg once daily for 14 days) was 0 n (%) and the “AEs by relationship to drug: Related” value ([4]; 10 mg once daily for 14 days) was 0 n (%). For the same molecule, the “AEs … Unlikely related” value ([4]; 10 mg once daily for 14 days) was 0 n (%), the “Any AE, all CTCAE grades” value ([4]; 10 mg once daily for 14 days) was 2 (33.3%) n (%) and the “Grade 1” value ([4]; 10 mg once daily for 14 days) was 2 (33.3%) n (%). The “Grade 2 or higher” value ([4]; 10 mg once daily for 14 days) was 0 n (%), the “Serious AEs” value ([4]; 10 mg once daily for 14 days) was 0 n (%) and the “ALT increase to ≥2×ULN” value ([4]; 14-day daily dosing) was “no treated subject”. For the same molecule, the “ECGs, cardiac biomarkers, or other clinical lab tests” value ([4]; 14-day daily dosing) was “No remarkable changes”, the “TSH or free T3” value ([4]; 14-day daily dosing) was “without clear change” and the “free T4” value ([4]; 14-day daily dosing) was “declined in dose-dependent fashion”. For the same molecule, the free testosterone ([4]; 14-day daily dosing) was “no significant change in free levels”, the total testosterone ([4]; 14-day daily dosing) was “Dose-dependent total testosterone increases” and the “Heart rate and blood pressure” value [4, 10] was “remained stable throughout the study”. The “grade of AEs” value [4, 10] was “Grade 1”, the tolerability [4, 10] was “overall well-tolerated” and the GGT ([4]; 14-day daily dosing, values remaining below ULN) was “Dose-dependent GGT increases”. The renal excretion ([5]; all single doses) was “Minimal renal excretion”, the “fe (fraction of dose excreted in urine as unmodified Compound 1)” value ([5]; single 3 mg dose) was 2.95 (62) % dose, urine and the “fe (fraction of dose excreted in urine as unmodified Compound 1)” value ([5]; single 10 mg dose) was 2.05 (74) % dose, urine. The “fe (fraction of dose excreted in urine as unmodified Compound 1)” value ([5]; single 30 mg dose) was 1.78 (35) % dose, urine, the “fe (fraction of dose excreted in urine as unmodified Compound 1)” value ([5]; single 60 mg dose) was 1.53 (53) % dose, urine and the “dose proportionality of exposures (AUC, Cmax)” value ([5]; single doses 3-60 mg) was “approximately dose-proportional; also recorded: linear and dose-proportional plasma exposures with low variability”. The SHBG [6] was “increased”, the “circulating atherogenic lipid levels including LDL-c, Apo B, total cholesterol, and triglycerides” value [6] was “significant decreases” and the t1/2 ([7]; Day 14, 6 mg QD, N = 6, median) was 15.8 h. The “oral bioavailability and PK variability” value ([7]; multiple doses) was “good oral bioavailability with low PK variability”, the “Apo B Change” value ([8]; Day 3 after single 3 mg dose) was −1.5% and the “SHBG Change” value ([8]; Day 3 after single 3 mg dose) was 0.20 nmol/L. For the same molecule, the “Apo B Change” value ([8]; Day 3 after single 10 mg dose) was −5.6%, the “SHBG Change” value ([8]; Day 3 after single 30 mg dose) was 6.0 nmol/L and the “LDL-c, total cholesterol, and Apo-B” value ([8]; Day 3 following single dose, similar on Day 4) was “Dose-dependent decreases”. For the same molecule, the triglyceride levels ([8]; after a single dose) was “No significant changes” and the “SHBG relative to placebo” value ([8]; single doses of ≥10 mg) was “Significant increases”.

For `Cn1cc(C(=O)O)c2ccc(C3CCC(OCc4c(-c5c(Cl)cccc5Cl)noc4C4CC4)CC3)cc21` (stereo not drawn) [Compound 2], the “Mean trough analyte concentration (SD)” value ([9]; treatment group Combo-high, n = 14) was 3.3 (1.8) ng/mL, the “Mean trough analyte concentration (SD)” value ([9]; treatment group Combo-med, n = 16) was 5.8 (3.5) ng/mL and the “Mean trough analyte concentration (SD)” value ([9]; treatment group Compound 2 (10 mg/kg), n = 16) was 7.4 (3.8) ng/mL. For the same molecule, the IC50 (P-gp) was 3.92 µM.
